The values below come from patent US20240043427A1 (Gilead Sciences, Inc., priority 2020, published 2024).

Assay [1] has as its target T1, CD73 (Homo sapiens (Human), UniProt P21589). Description: MDA-MB-231 Cell Based CD73 Activity Assay (DMEM). The settings on record: MDA-MB-231-GFP cells, DMEM medium with 10% human plasma, 200 uM AMP.
The target in assay [2] is T1, CD73. The assay is classed as biochemical. The settings on record: 1 mM NaH2PO4 in enzyme buffer, CD73 0.3 nM, AMP 15 uM.

One may read the EC50 as the midpoint of the concentration-response curve. A word on the IC50: it is the concentration at which inhibition is half-maximal. Read a low IC50 as inhibition by little substance.

Some results are limits rather than exact numbers.

T1 sequence (P21589 27-574): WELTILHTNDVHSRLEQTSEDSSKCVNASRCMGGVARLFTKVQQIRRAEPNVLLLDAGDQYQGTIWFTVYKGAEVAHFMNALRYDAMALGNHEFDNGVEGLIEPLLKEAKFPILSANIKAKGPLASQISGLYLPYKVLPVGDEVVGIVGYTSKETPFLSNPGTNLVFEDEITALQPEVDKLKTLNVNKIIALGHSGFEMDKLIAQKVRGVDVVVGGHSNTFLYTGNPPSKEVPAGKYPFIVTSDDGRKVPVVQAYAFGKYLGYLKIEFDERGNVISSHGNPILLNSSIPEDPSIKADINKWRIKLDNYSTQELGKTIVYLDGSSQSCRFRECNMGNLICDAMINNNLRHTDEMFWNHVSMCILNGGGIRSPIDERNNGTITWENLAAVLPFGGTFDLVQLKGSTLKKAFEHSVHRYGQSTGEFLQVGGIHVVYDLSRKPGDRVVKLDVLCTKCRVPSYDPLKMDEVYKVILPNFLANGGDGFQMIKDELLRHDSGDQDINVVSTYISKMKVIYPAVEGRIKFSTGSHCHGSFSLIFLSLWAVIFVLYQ

In the case of `O=c1[nH]cc(-c2cc([C@H]3C[C@@H]3c3cnc4cnn(CC(F)(F)F)c4c3)c3ncc(F)n3n2)c(=O)[nH]1` (racemic) [Example 619, 5-(3-fluoro-8-((1S,2S)-2-(1-(2,2,2-trifluoroethyl)-1H-pyrazolo[4,3-b]pyridin-6-yl)cyclopropyl)imidazo[1,2-b]pyridazin-6-yl)pyrimidine-2,4(1H,3H)-dione], the midpoint of the response at CD73 [1], the EC50, lay at 0.14 nM. In addition, 0.95 nM corresponded to half-maximal inhibition against CD73 [2] (IC50).

Consider `O=c1[nH]cc(-c2cc([C@H]3C[C@@H]3c3ncc4cnn(CC(F)(F)F)c4c3F)c3ncc(F)n3n2)c(=O)[nH]1` (racemic) [Example 621, 5-(3-fluoro-8-((1S,2S)-2-(7-fluoro-1-(2,2,2-trifluoroethyl)-1H-pyrazolo[4,3-c]pyridin-6-yl)cyclopropyl)imidazo[1,2-b]pyridazin-6-yl)pyrimidine-2,4(1H,3H)-dione], for which the midpoint of the response on CD73 [1], the EC50, lay at 0.32 nM. The compound further came in with a half-maximal inhibitory concentration (IC50) at CD73 [2] of 1.32 nM.

In turn, `O=c1[nH]cc(-c2cc([C@H]3C[C@@H]3c3cc(-c4ccccc4C(F)(F)F)ccn3)c3nccn3n2)c(=O)[nH]1` (racemic) [Example 622, 5-(8-((1S,2S)-2-(4-(2-(trifluoromethyl)phenyl)pyridin-2-yl)cyclopropyl)imidazo[1,2-b]pyridazin-6-yl)pyrimidine-2,4(1H,3H)-dione] displayed a concentration for a half-maximal effect (EC50) at CD73 [1] of 27.3 nM. The compound also registered an IC50 on CD73 [2] of 2.87 nM.

With `O=c1[nH]cc(-c2cc([C@H]3C[C@@H]3c3cc(-c4ccc(F)cc4F)ccn3)c3nccn3n2)c(=O)[nH]1` (racemic) [Example 623, 5-(8-((1S,2S)-2-(4-(2,4-difluorophenyl)pyridin-2-yl)cyclopropyl)imidazo[1,2-b]pyridazin-6-yl)pyrimidine-2,4(1H,3H)-dione], the concentration giving a half-maximal response (EC50) on CD73 [1] was 22 nM. In addition, 2.27 nM corresponded to half-maximal inhibition against CD73 [2] (IC50).

Take `O=c1[nH]cc(-c2cc([C@H]3C[C@@H]3c3cc4c(cn3)nc(C(F)(F)F)n4CC(F)(F)F)c3nccn3n2)c(=O)[nH]1` (racemic) [Example 624, 5-(8-((1S,2S)-2-(1-(2,2,2-trifluoroethyl)-2-(trifluoromethyl)-1H-imidazo[4,5-c]pyridin-6-yl)cyclopropyl)imidazo[1,2-b]pyridazin-6-yl)pyrimidine-2,4(1H,3H)-dione]: on CD73 [1], the EC50 came to 0.32 nM. At CD73 [2], this compound came in with a half-inhibitory concentration (IC50) of 5.81 nM.

With `O=c1[nH]cc(-c2cc([C@H]3C[C@@H]3c3ccn4c(C(F)(F)F)ncc4c3)c3nccn3n2)c(=O)[nH]1` (racemic) [Example 625, 5-(8-((1S,2S)-2-(3-(trifluoromethyl)imidazo[1,5-a]pyridin-7-yl)cyclopropyl)imidazo[1,2-b]pyridazin-6-yl)pyrimidine-2,4(1H,3H)-dione], it took 10.1 nM to reach a half-maximal effect on CD73 [1] (EC50). On CD73 [2], this compound returned a concentration for half-maximal inhibition (IC50) of 2.47 nM.

Compound `O=c1[nH]cc(-c2cc([C@H]3C[C@@H]3c3ccc4nc(C(F)F)n(CC(F)(F)F)c4c3)c3nccn3n2)c(=O)[nH]1` (racemic) [Example 626, 5-(8-((1S,2S)-2-(2-(difluoromethyl)-1-(2,2,2-trifluoroethyl)-1H-benzo[d]imidazol-6-yl)cyclopropyl)imidazo[1,2-b]pyridazin-6-yl)pyrimidine-2,4(1H,3H)-dione] returned an EC50 on CD73 [1] of 0.26 nM. On CD73 [2], this compound displayed an IC50 of 5.16 nM.

As for `O=c1[nH]cc(-c2cc([C@H]3C[C@@H]3c3cc(OCC(F)(F)F)c4cccnc4c3)c3nccn3n2)c(=O)[nH]1` (racemic) [Example 627, 5-(8-((1S,2S)-2-(5-(2,2,2-trifluoroethoxy)quinolin-7-yl)cyclopropyl)imidazo[1,2-b]pyridazin-6-yl)pyrimidine-2,4(1H,3H)-dione], at CD73 [1], the 50% effective concentration (EC50) is above 50 nM. Further, inhibition at CD73 [2] was half-maximal at 2.57 nM (IC50).

At CD73 [1], `CC(F)(F)CN1C(=O)C2(CC2)c2ccc([C@H]3C[C@@H]3c3cc(-c4c[nH]c(=O)[nH]c4=O)nn4ccnc34)cc21` (racemic) [Example 733, 5-(8-((1S,2S)-2-(1′-(2,2-difluoropropyl)-2′-oxospiro[cyclopropane-1,3′-indolin]-6′-yl)cyclopropyl)imidazo[1,2-b]pyridazin-6-yl)pyrimidine-2,4(1H,3H)-dione] came in with an EC50 of 0.11 nM. For the same compound, at CD73 [2], inhibition was half-maximal at 2.72 nM (IC50).

As for `O=C1N(CC2(F)CC2)c2cc([C@H]3C[C@@H]3c3cc(-c4c[nH]c(=O)[nH]c4=O)nn4ccnc34)ccc2C12CC2` (racemic) [Example 734, 5-(8-((1S,2S)-2-(1′-((1-fluorocyclopropyl)methyl)-2′-oxospiro[cyclopropane-1,3′-indolin]-6′-yl)cyclopropyl)imidazo[1,2-b]pyridazin-6-yl)pyrimidine-2,4(1H,3H)-dione], the concentration giving a half-maximal response (EC50) on CD73 [1] amounted to 0.19 nM. For the same compound, the half-maximal inhibitory concentration (IC50) against CD73 [2] came out at 1.69 nM.

The compound `O=C1N(CC(F)(F)C(F)F)c2cc([C@H]3C[C@@H]3c3cc(-c4c[nH]c(=O)[nH]c4=O)nn4ccnc34)ccc2C12CC2` (racemic) [Example 736, 5-(8-((1S,2S)-2-(2′-oxo-1′-(2,2,3,3-tetrafluoropropyl)spiro[cyclopropane-1,3′-indolin]-6′-yl)cyclopropyl)imidazo[1,2-b]pyridazin-6-yl)pyrimidine-2,4(1H,3H)-dione] came in with an EC50 at CD73 [1] of 0.21 nM. This compound showed a 50% inhibitory concentration (IC50) against CD73 [2] of 1.91 nM.

Regarding `O=C1N(CC(F)(F)C(F)(F)F)c2cc([C@H]3C[C@@H]3c3cc(-c4c[nH]c(=O)[nH]c4=O)nn4ccnc34)ccc2C12CC2` (racemic) [Example 737, 5-(8-((1S,2S)-2-(2′-oxo-1′-(2,2,3,3,3-pentafluoropropyl)spiro[cyclopropane-1,3′-indolin]-6′-yl)cyclopropyl)imidazo[1,2-b]pyridazin-6-yl)pyrimidine-2,4(1H,3H)-dione], the EC50 on CD73 [1] came out at 0.18 nM. The same compound yielded a concentration for half-maximal inhibition (IC50) on CD73 [2] of 1.79 nM.

On CD73 [1], `O=C1N(CC(F)(F)C2CC2)c2cc([C@H]3C[C@@H]3c3cc(-c4c[nH]c(=O)[nH]c4=O)nn4ccnc34)ccc2C12CC2` (racemic) [Example 738, 5-(8-((1S,2S)-2-(1′-(2-cyclopropyl-2,2-difluoroethyl)-2′-oxospiro[cyclopropane-1,3′-indolin]-6′-yl)cyclopropyl)imidazo[1,2-b]pyridazin-6-yl)pyrimidine-2,4(1H,3H)-dione] gave a concentration for a half-maximal effect (EC50) of 0.21 nM. For the same compound, the concentration for half-maximal inhibition (IC50) against CD73 [2] amounted to 1.74 nM.

Take `O=C1N(CCC(F)(F)F)c2cc([C@H]3C[C@@H]3c3cc(-c4c[nH]c(=O)[nH]c4=O)nn4ccnc34)ccc2C12CC2` (racemic) [Example 746, 5-(8-((1S,2S)-2-(2′-oxo-1′-(3,3,3-trifluoropropyl)spiro[cyclopropane-1,3′-indolin]-6′-yl)cyclopropyl)imidazo[1,2-b]pyridazin-6-yl)pyrimidine-2,4(1H,3H)-dione]: at CD73 [1], the EC50 amounted to 0.84 nM. The IC50 against CD73 [2] amounted to 2.37 nM.

`CC1(C)CN(c2cc(-c3c[nH]c(=O)[nH]c3=O)nn3ccnc23)CC1(F)F` [Example 80, 5-[8-(3,3-difluoro-4,4-dimethyl-pyrrolidin-1-yl)imidazo[1,2-b]pyridazin-6-yl]-1H-pyrimidine-2,4-dione] showed an EC50 at CD73 [1] of 6.79 nM. This compound displayed an IC50 against CD73 [2] of 1.81 nM.

As to `CC1(C)CN(c2cc(-c3c[nH]c(=O)[nH]c3=O)nn3c(F)cnc23)CC1(F)F` [Example 81, 5-[8-(3,3-difluoro-4,4-dimethyl-pyrrolidin-1-yl)-3-fluoro-imidazo[1,2-b]pyridazin-6-yl]-1H-pyrimidine-2,4-dione], the EC50 on CD73 [1] stood at 8.22 nM. Besides, half-maximal inhibition against CD73 [2] (IC50) required 1.93 nM.

On CD73 [1], `O=c1[nH]cc(-c2cc(N3CC(F)(F)C4(CC4)C3)c3ncc(F)n3n2)c(=O)[nH]1` [Example 82, 5-(8-(7,7-difluoro-5-azaspiro[2.4]heptan-5-yl)-3-fluoroimidazo[1,2-b]pyridazin-6-yl)pyrimidine-2,4(1H,3H)-dione] came in with a concentration for a half-maximal effect (EC50) of 16.4 nM. The same compound showed an IC50 against CD73 [2] of 3.49 nM.

`O=c1[nH]cc(-c2cc(N3CC(F)(F)C4(CC4)C3)c3nccn3n2)c(=O)[nH]1` [Example 83, 5-(8-(7,7-difluoro-5-azaspiro[2.4]heptan-5-yl)imidazo[1,2-b]pyridazin-6-yl)pyrimidine-2,4(1H,3H)-dione] came in with an EC50 on CD73 [1] of 6.65 nM. Moreover, the IC50 on CD73 [2] was determined as 1.47 nM.

`O=c1[nH]cc(-c2cc(N3CC(F)(F)C4(CC4)C3)c3ncnn3n2)c(=O)[nH]1` [Example 84, 5-(8-(7,7-difluoro-5-azaspiro[2.4]heptan-5-yl)-[1,2,4]triazolo[1,5-b]pyridazin-6-yl)pyrimidine-2,4(1H,3H)-dione] yielded a half-maximal effective concentration (EC50) at CD73 [1] of 6.56 nM. This compound had an IC50 against CD73 [2] of 1.1 nM.

For `CC(C)n1ncc2ccc([C@H]3C[C@@H]3c3cc(-c4c[nH]c(=O)[nH]c4=O)nn4ccnc34)cc21` [Example 120, 5-(8-((1S,2S)-2-(1-isopropyl-1H-indazol-6-yl)cyclopropyl)imidazo[1,2-b]pyridazin-6-yl)pyrimidine-2,4(1H,3H)-dione], on CD73 [1], the response was half-maximal at 0.85 nM (EC50). The same compound gave an IC50 against CD73 [2] of 0.85 nM.

On CD73 [1], `O=c1[nH]cc(-c2cc([C@H]3C[C@@H]3c3ccc(OC(F)F)nc3)c3ncc(F)n3n2)c(=O)[nH]1` [Example 122, 5-(8-((1S,2S)-2-(6-(difluoromethoxy)pyridin-3-yl)cyclopropyl)-3-fluoroimidazo[1,2-b]pyridazin-6-yl)pyrimidine-2,4(1H,3H)-dione] registered an EC50 of 11.1 nM. In addition, inhibition at CD73 [2] was half-maximal at 2.39 nM (IC50).

In turn, `O=c1[nH]cc(-c2cc([C@@H]3C[C@H]3c3ccc4cnn(CC(F)F)c4c3)c3nccn3n2)c(=O)[nH]1` [Example 124, 5-(8-((1R,2R)-2-(1-(2,2-difluoroethyl)-1H-indazol-6-yl)cyclopropyl)imidazo[1,2-b]pyridazin-6-yl)pyrimidine-2,4(1H,3H)-dione] had a 50% effective concentration (EC50) at CD73 [1] of 0.62 nM. For the same compound, it took 2.6 nM to reach half-maximal inhibition on CD73 [2] (IC50).

On CD73 [1], `O=c1[nH]cc(-c2cc([C@H]3C[C@@H]3c3ccc4cnn(CC(F)F)c4c3)c3nccn3n2)c(=O)[nH]1` [Example 125, 5-(8-((1S,2S)-2-(1-(2,2-difluoroethyl)-1H-indazol-6-yl)cyclopropyl)imidazo[1,2-b]pyridazin-6-yl)pyrimidine-2,4(1H,3H)-dione] had a concentration for a half-maximal effect (EC50) of 0.17 nM. Besides, it took 0.71 nM to reach half-maximal inhibition at CD73 [2] (IC50).
